# In patent US12527800B2, “Therapeutic agent for Parkinson's disease” (KYOWA KIRIN CO., LTD., priority 2019, dated 2026):
# Tested on: patients of Parkinson's disease experiencing motor fluctuations
# Test: Multivariate logistic regression analysis of patient baseline factors associated with efficacy of istradefylline (odds ratios)
# Type: in vivo, human
# Experimental: The cut-off value for the treatment effect used to determine the efficacy of istradefylline was defined as a reduction in OFF time (1 hour or longer), an increase in ON time without troublesome dyskinesia (1 hour or longer), and an improvement in UPDRS Part III score (3 points or more) from the clinically meaningful point of view. […] Further, with respect to the UPDRS Part II score at OFF state, an improvement of 1 point or more from the sensitivity/(1-specificity) curve (ROC curve) using the UPDRS Part II score and the CGI-I score was defined as the cut-off of the effect.
# The study of baseline factors having a favorable effect on the respective outcomes of the efficacy of istradefylline was performed by multivariate logistic regression analysis controlling for 12 baseline factors, which were expressed as the odds ratio (OR) and 95% confidence interval (CI). The efficacy outcomes included daily OFF time, ON time without troublesome dyskinesia, UPDRS Part III score at ON state, CGI-I, and UPDRS Part II score at OFF state. As covariates in the logistic regression analysis, age, sex, the presence or absence of dyskinesia history (determined based on the patient diary at baseline), mean daily OFF time, total UPDRS Part III score, mH&Y score at ON state and OFF state, concomitant drugs, duration of Parkinson's disease (duration of PD), duration of motor complications, L-DOPA dose, and levodopa-equivalent dose were used.
# In this study, with respect to the outcomes under the treatment with istradefylline, analysis of baseline factors associated with expressing a more favorable effect was performed according to the following three steps. First, interactions between the treatment with istradefylline (two doses: 20 mg and 40 mg) and 12 baseline factors were evaluated based on type III p-value by multivariate logistic regression analysis (an index for evaluating whether or not the heterogeneity (interaction) occurs in the association between the treatment and the outcome due to a certain baseline factor). As the second step, an odds ratio (OR) was estimated for the baseline factor associated with the achievement of a more favorable effect according to the dose group of istradefylline if a significant interaction is observed between the treatment with istradefylline and the baseline factor. In addition, OR was estimated for the baseline factor associated with the achievement of a more favorable effect in all patient groups if an interaction is not observed between the treatment with istradefylline and the baseline factor.
# A two-tailed p value <0.05 and an interaction p value <0.10 were determined to be statistically significant. All analyses were performed using SAS software version 9.2 or 9.3 (SAS Institute, Inc., Cary, N.C., USA).
# [1] = age ≥65 vs <65 y (ref), 20 and 40 mg/day together
# [2] = baseline UPDRS Part III score ≥20 vs <20 (ref), 20 and 40 mg/day together
# [3] = baseline m Hoehn & Yahr scale at OFF state ≥3 vs <3 (ref), 20 and 40 mg/day together
# [4] = baseline mean daily OFF time 4 to <8 h vs <4 h (ref), 20 mg/day
# [5] = baseline mean daily OFF time 4 to <8 h vs <4 h (ref), 40 mg/day
# [6] = baseline mean daily OFF time 4 to <8 h vs <4 h (ref), 20 and 40 mg/day together
# [7] = baseline mean daily OFF time ≥8 h vs <4 h (ref), 20 mg/day
# [8] = baseline mean daily OFF time ≥8 h vs <4 h (ref), 40 mg/day
# [9] = baseline mean daily OFF time ≥8 h vs <4 h (ref), 20 and 40 mg/day together
smiles,measurement,setting,value
CCn1c(=O)c2c(nc(/C=C/c3ccc(OC)c(OC)c3)n2C)n(CC)c1=O [istradefylline],"Odds ratio, increase in ON time without troublesome dyskinesia (1 hour or longer)","age ≥65 vs <65 y (ref), 20 mg/day",1.47
same,"Odds ratio, increase in ON time without troublesome dyskinesia (1 hour or longer)","age ≥65 vs <65 y (ref), 40 mg/day",2.88
same,"Odds ratio, OFF time reduction (1 hour or longer)",[1],2.65
same,"Odds ratio, improvement in CGI-I (very much, much or minimally improved)",[1],1.17
same,"Odds ratio, improvement in UPDRS Part II score (OFF)",[1],0.90
same,"Odds ratio, improvement in UPDRS Part III score (3 points or more)",[1],0.65
same,"Odds ratio, OFF time reduction (1 hour or longer)",[2],0.88
same,"Odds ratio, improvement in CGI-I (very much, much or minimally improved)",[2],1.49
same,"Odds ratio, improvement in UPDRS Part II score (OFF)",[2],0.79
same,"Odds ratio, improvement in UPDRS Part III score (3 points or more)",[2],2.79
same,"Odds ratio, increase in ON time without troublesome dyskinesia (1 hour or longer)",[2],0.97
same,"Odds ratio, improvement in UPDRS Part II score (OFF)","baseline m Hoehn & Yahr scale at OFF state ≥3 vs <3 (ref), 20 mg/day",0.99
same,"Odds ratio, improvement in UPDRS Part II score (OFF)","baseline m Hoehn & Yahr scale at OFF state ≥3 vs <3 (ref), 40 mg/day",3.50
same,"Odds ratio, OFF time reduction (1 hour or longer)",[3],0.63
same,"Odds ratio, improvement in CGI-I (very much, much or minimally improved)",[3],1.89
same,"Odds ratio, improvement in UPDRS Part III score (3 points or more)",[3],1.81
same,"Odds ratio, increase in ON time without troublesome dyskinesia (1 hour or longer)",[3],0.60
same,"Odds ratio, OFF time reduction (1 hour or longer)",[4],1.27
same,"Odds ratio, increase in ON time without troublesome dyskinesia (1 hour or longer)",[4],1.09
same,"Odds ratio, OFF time reduction (1 hour or longer)",[5],1.58
same,"Odds ratio, increase in ON time without troublesome dyskinesia (1 hour or longer)",[5],0.58
same,"Odds ratio, improvement in CGI-I (very much, much or minimally improved)",[6],1.09
same,"Odds ratio, improvement in UPDRS Part II score (OFF)",[6],1.00
same,"Odds ratio, improvement in UPDRS Part III score (3 points or more)",[6],0.85
same,"Odds ratio, OFF time reduction (1 hour or longer)",[7],1.57
same,"Odds ratio, increase in ON time without troublesome dyskinesia (1 hour or longer)",[7],1.19
same,"Odds ratio, OFF time reduction (1 hour or longer)",[8],6.68
same,"Odds ratio, increase in ON time without troublesome dyskinesia (1 hour or longer)",[8],2.38
same,"Odds ratio, improvement in CGI-I (very much, much or minimally improved)",[9],0.85
same,"Odds ratio, improvement in UPDRS Part II score (OFF)",[9],0.98
same,"Odds ratio, improvement in UPDRS Part III score (3 points or more)",[9],0.53
